According to patent US20230102836A1, “Amoebicidal Compositions for Contact Lens Solutions” (University of the West of Scotland, priority 2019, published 2023):
“And” between values parts separate entries of the source, which are not always exact repeats. Equal values may be shown once. Read-outs that look alike come from different tables or passages of the source.

What was measured:
[1] = system: A. castellanii cysts; experiment: Extrusion of cytoplasmic constituents (DNA, protein) from cysts; type: cell-based, Acanthamoeba castellanii ATCC 50370
Source text: FIGS. 9A-9B show the extrusion of cytoplasmic constituents of A. castellani cysts to the external milieu after QAC treatment. DNA (FIG. 9A) and Protein (FIG. […] 9A) and at 280 nm (FIG. 9B) respectively. Data is mean absorbance at 260 nm (FIG. 9A) and 280 nm (FIG. 9B)±SD respectively: n=4 independent experiments performed in triplicates.
Protein concentration in cell extract and media of QAC-treated and untreated A. castellanii trophozoites was estimated at 280 nm using the Nanodrop® ND-1000 and expressed as ng/μl protein. DNA concentrations were estimated similarly at 260 nm and expressed as ng/μl.

[2] = system: gDNA from A. castellanii; experiment: QAC-DNA interaction assay; type: binding, Acanthamoeba castellanii; details: DNA:QAC ratios 1:0, 1:1, 1:10, 1:20; 15 min
Method: FIGS. 3A and 3B show the QAC-DNA interaction. The absorbance of genomic DNA (0.6 ng/ml) extracted from A. castellani trophozoites measured at 260 nm with the Nanodrop after incubating for 15 minutes with 0 ng/ml, 0.6 ng/ml, 6 ng/ml or 12 ng/ml of QAC12 (FIG. 3A) or QAC16 (FIG. 3B) to give ratios of 1:0, 1:1, 1:10 and 1:20. DNA absorbance increased and decreased with increased […] and [QAC12] respectively. Data is mean absorbance at 260 nm±SD; n=4 independent experiments performed in triplicates.
Genomic deoxynucleic acids (gDNA) from 10^8 A. castellanii trophozoites (treated with and without QAC) were extracted from cells harvested by centrifugation (850×g, 10 min), lysed with UNSET buffer (8M urea, […] NaCl, 2% SDS, […] ethylenediaminetetraacetic acid (EDTA), […] Tris-HCl, pH 7.5) and the DNA extracted with phenol-chloroform (1:1 v/v). The biphasic suspension with DNA enriched on the […] was centrifuged (12,000×g for 15 min, 4° C.) for clear separation and transferred to a new microcentrifuge tube. The DNA was precipitated with cold ethanol (100%, v/v) and 0.3M sodium acetate, washed twice with 70% (v/v) ethanol (12,000×g for 10 min, 4° C.), air dried and resuspended in distilled water. […]

[3] = system: A. castellanii cysts; experiment: Cytotoxicity assay on cysts (trypan blue); type: cell-based, Acanthamoeba castellanii ATCC 50370; details: Acanthamoeba castellanii
Method: Acanthamoeba castellanii ATCC 50370 trophozoites and cysts were cultured in Peptone Glucose (PG) medium and encystment medium (Chagla A H, Griffiths A J (1974) Microbiology: 85(1): 139-145) respectively at 25° C. Cysts were prepared by incubating trophozoites for 8 days in encystment medium and integrity validated with calcofluor (0.25 μg/ml) assay (Gatti S et al (2010) J. Med. Microbiol.; 59: 1324-1330) or sodium dodecyl sulfate (SDS, 0.5% w/v) disintegration assay (Dudley R et al (2005) Acta Trop.; 9: 100-8) and microscopic observation.
The compounds used in this study all contained alkyl-carbon chains: three APCs [dodecyl-PC (APC12), tetradecyl-PC. (APC14) and hexadecyl-PC (APC16)] (Anatrace) and four QACs [docdecyl-TMAB (QAC12), tetradecyl-TMAB (QAC14), hexadecyl-TMAB (QAC16) and octadecyl-TMAB (QAC18)](Sigma). All were prepared to a stock concentration of 1 mg/ml and diluted as required by the experimental protocol in the cytotoxicity assays. A. castellanii trophozoites and cysts (at 10^5 cells/ml) with or without APCs or QACs (concentrations ranging from […] doubly diluted to 0.04 μg/ml to a final volume of 100 μl) in a 96-well plate were incubated at 25° C. for a duration determined by the experimental protocol.
For the combined assay, similar concentrations of QAC18 and APC16 were prepared and 18.75 μg/ml and 37.5 μg/ml of QAC12 added (to a final volume of 100 μl) were added to 10^5 cells/mi in a 96-well plate and later incubated at 25° C. for a duration determined by the experimental protocol. Resazurin (7-Hydroxy-31-phenoxazin-3-one 10-oxide; 5 mg/ml; McBride J et al (2005) J. Clin. Microbiol.; 43: 629-634) and trypan blue (0.4 μg/ml; Mafra C S P et al (2013) Investig. Ophthalmol. Vis. Si.; 54: 6363-6372) were then added to trophozoites and cysts respectively after being exposed to the compounds and the cell viability estimated microscopically and from changes in absorbance (at 595 nm and 570 nm) respectively.
Efficacy was expressed as a percentage of untreated controls for each drug concentration used and the data used to calculate the IC50. Cell density was estimated using the modified Neubaur hemocytometer and expressed as cells/ml.

[4] = system: Acanthamoeba trophozoites; experiment: Checkerboard dilution QAC-APC interaction (Bliss model); type: cell-based, Acanthamoeba castellanii; details: APC12, APC14, APC16; 96 h at 25° C.
Method: Acanthamoeba trophozoites (10^5 cells/ml. n=5/treatment) treated with 100 μg/ml doubly diluted to 0.06 μg/ml of QAC12 (FIG. 7A), […], QAC16 (FIG. 7C) and QAC18 (FIG. 7D) with APC 12 (i), APCI 4 (ii) and APC16 (iii) for 96 h at 25° C. Cell viability estimated by the alamarBlue assay the dose-response curves used to produce a surface analysis (right panel) and the interaction profile determined using the Bliss model. The degree of interaction characterised by the QCScore heuristic score are produced as heat map (left panel). The colour of each cell in the heatmap and the surface analysis represents the assay response at that dose combination; red to orange, antagonistic: yellow to green, additive and blue, synergistic.
The change in potency between QAC and APC prompted us to used the checkerboard dilution method to identify synergistic interactions (FIG. 7A-D). Three interaction profiles, antagonistic (orange to red), additive (yellow to green) and synergistic (blue) were observed, with optimal synergistic interactions deemed to be significant occurring between 20-38%; (FIG. 7).

CCCCCCCCCCCCCCCCCC[N+](C)(C)C.[Br-] [QAC18, octadecyltrimethyl ammonium bromide]
Increase in DNA in the external milieu of cysts ([1]; after 1 h (FIG. 9A)): 40%
Increase in proteins in the external milieu of cysts ([1]; after 1 h (FIG. 9B)): 50%
Change of gDNA absorbance at 260 nm with increasing QAC [2]: progressively increased absorbance
IC50 ([3]; Table 2, read-out: IC50 A. castellanii cysts): 15 µg/mL and 38 µM
IC50 ([3]; after 96 h, trypan blue viability assay, read-out: Estimated IC50 against matured cysts): 22 ± 0.04 µg/mL
Interaction profile of QAC combined with APCs [4]: No significant synergy
